Data from US7101878B1 (Agouron Pharmaceuticals, Inc., priority 1998, dated 2006).
Like-named read-outs stand apart in the source and are kept apart here. Where a SMILES comes first, the peptide text is derived from it. [ ]: non-standard residue; d: D form. The star is where a group is joined. dPhe(4-Cl) = N[C@H](Cc1ccc(Cl)cc1)C(=O)O; d2Nal = N[C@H](Cc1ccc2ccccc2c1)C(=O)O; Lys(iPr) = CC(C)NCCCC[C@H](N)C(=O)O; d3Pal = N[C@H](Cc1cccnc1)C(=O)O; Nicotinoyl = O=C(c1cccnc1)*

Legend:
hGnRH receptor = target: T1, hGnRH receptor (Homo sapiens, UniProt P30968); assay: Total inositol phosphates measurement, 293 cells containing the hGnRH receptor; assay type: cell-based; conditions: for GnRH functional: no species or readout annotated
T1 construct: expressed in transfected cells; host or cells: HEK 293 (hGnRH-R/293, from Dr. Stuart Sealfon)
T1 sequence (P30968 1-328): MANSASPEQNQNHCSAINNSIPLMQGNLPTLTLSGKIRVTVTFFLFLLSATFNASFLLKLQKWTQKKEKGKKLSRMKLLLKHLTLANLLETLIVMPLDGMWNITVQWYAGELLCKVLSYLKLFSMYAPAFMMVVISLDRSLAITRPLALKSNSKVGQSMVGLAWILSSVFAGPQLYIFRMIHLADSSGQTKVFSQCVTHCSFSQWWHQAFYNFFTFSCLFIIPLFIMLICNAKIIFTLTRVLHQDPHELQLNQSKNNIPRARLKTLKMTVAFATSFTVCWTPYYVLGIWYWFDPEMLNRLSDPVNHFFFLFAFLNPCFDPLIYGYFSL
Protocol: To assess the activity of the compounds as agonists or antagonists, an assay measuring accumulation of total inositol phosphates was employed. 293 cells containing the hGnRH receptor were plated onto 24-well plates (approximately 200,000 cells/well) using DMEM media. […] The medium was aspirated and the cells rinsed with serum-free DMEM. The medium was aspirated and the cells were then treated with test compounds or vehicle for 30 minutes at 37° C. […] The media was replaced with ice-cold 10 mM formic acid, which stopped the reaction and also served to extract cellular lipids. Inositol phosphates were separated by ion-exchange chromatography on Dowex columns, which were washed with 2.5 mL of 10 mM myoinositol and 10 mM formic acid. The columns were then washed with 5 mL of 60 mM sodium formate and […], and total inositol phosphates were eluted with 5 mL 1M ammonium formate, 0.1 M formic acid. The column eluates were added to liquid scintillation vials containing 15 ml of scintillation cocktail and were counted by liquid scintillation counting.
(§1) This cell line was provided by Dr. Stuart Sealfon, Mount Sinai Medical School New York, N.Y. These cells were grown in DMEM supplemented with 0.2 g/L G418 100 U/ml penicillin/streptomycin and 10% FBS. Both GGH3 and hGnRH-R/293 cells were utilized for both for both total inositol phosphate measurement and for microphysiometry assessment of compound efficacy.

Glucagon = Glucagon (Homo sapiens, UniProt P47871); assay: Selectivity: Glucagon
rat GnRH receptor = target: T2, rat GnRH receptor (Rattus norvegicus, UniProt P30969); assay: Microphysiometry, extracellular acidification rate, GGH3 cells; assay type: cell-based
T2 sequence (P30969 1-327): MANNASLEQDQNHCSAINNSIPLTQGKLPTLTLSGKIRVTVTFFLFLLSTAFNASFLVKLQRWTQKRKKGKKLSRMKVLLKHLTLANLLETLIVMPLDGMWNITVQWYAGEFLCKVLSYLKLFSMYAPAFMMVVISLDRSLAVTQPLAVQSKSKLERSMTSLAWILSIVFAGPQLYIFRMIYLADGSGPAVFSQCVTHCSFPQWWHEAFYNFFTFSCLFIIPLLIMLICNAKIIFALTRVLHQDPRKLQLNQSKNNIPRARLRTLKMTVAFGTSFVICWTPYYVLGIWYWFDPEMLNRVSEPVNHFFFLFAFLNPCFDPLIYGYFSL
Protocol: These cells have been extensively characterized previously (Kaiser et al., 1997). These cells were grown in low glucose Dulbecco's modified Eagle's medium (DMEM) containing: 100U/mL penicillin/streptomycin, 0.6 g/L G418 and 10% beat-inactivated fetal bovine serum
as §1
The Cytosensor®Microphysiometer (Molecular Devices, Sunnyvale, Calif.) is a real-time, noninvasive, nonradioactive semiconductor-based system for monitoring the cellular responses to various stimuli. It is based on a pH-sensitive silicon sensor, the light-addressable potentiometric sensor which forms part of a microvolume flow chamber in which cultured cells are immobilized (Pitchford et al., 1995; Parce et al., 1989; Owicki, et al. 1994).
GGH3 cells were seeded in low-buffered minimal essential media (MEM, Sigma) containing 25 mM NaCl and 0.1% BSA at a density of 500,000 cells/capsule onto the polycarbonate membrane (3 μm porosity) of cell capsule cups (Molecular Devices, Sunnyvale, Calif.). Capsule cups were transferred to sensor chambers where cells were held in close apposition to a silicon sensor within a sensor chamber, which measures small changes in pH in the microvolume of the sensor chamber. Low-buffered medium was pumped continuously across the cells at a rate of approximately 100 μl/min from one of two fluid reservoirs. A selection valve determined which reservoir from which fluid was perifused onto the cells.
The Cytosensor®Microphysiometer generates a voltage signal, which is a linear function of pH, every second. In order to measure acidification rates, flow to the sensor chamber containing the cells was periodically interrupted, allowing for excreted acidic metabolites to build up in the extracellular fluid of the cells. In these experiments, cells were maintained at 37° C. on a two minute flow cycle with cells being perfused with media for 80 seconds followed by 40 seconds in which the flow of media was stopped. During this 40 second interval, acidification rates were measured for a 30 sec interval. In this fashion, a single acidification rate was calculated every two min. The Cytosensor®Microphysiometer device contains eight such sensor units, allowing for eight simultaneous experiments to be performed. Each unit was individually programmed utilizing a computer linked to the system.
GGH3 cells were initially equilibrated in the low-buffered MEM media for a period of 30-60 min in which basal acidification rates (measured as μV/sec), in the absence of any stimuli, were monitored. When the basal rate of acidification changed by less than ten percent over a period of twenty minutes, experiments were initiated. Time course experiments were performed to determine the optimal time for agonist exposure prior to acidification rate measurement and the duration of exposure needed to obtain peak acidification responses to various agonists. From these time course experiments, it was determined that cells should be exposed to GnRH peptide agonists at least one minute prior to collection of acidification rate data. Peak acidification rates usually occurred in the first two-minute exposure cycle. In order to capture the peak response to GnRH, cells were exposed to the agonist for a total of four minutes. […] All compounds were tested in a final concentration of 1% DMSO in low-buffered MEM media described above.

[1] = rat, readout (PI or pH) not stated

Sequence of Glucagon (P47871 26-477): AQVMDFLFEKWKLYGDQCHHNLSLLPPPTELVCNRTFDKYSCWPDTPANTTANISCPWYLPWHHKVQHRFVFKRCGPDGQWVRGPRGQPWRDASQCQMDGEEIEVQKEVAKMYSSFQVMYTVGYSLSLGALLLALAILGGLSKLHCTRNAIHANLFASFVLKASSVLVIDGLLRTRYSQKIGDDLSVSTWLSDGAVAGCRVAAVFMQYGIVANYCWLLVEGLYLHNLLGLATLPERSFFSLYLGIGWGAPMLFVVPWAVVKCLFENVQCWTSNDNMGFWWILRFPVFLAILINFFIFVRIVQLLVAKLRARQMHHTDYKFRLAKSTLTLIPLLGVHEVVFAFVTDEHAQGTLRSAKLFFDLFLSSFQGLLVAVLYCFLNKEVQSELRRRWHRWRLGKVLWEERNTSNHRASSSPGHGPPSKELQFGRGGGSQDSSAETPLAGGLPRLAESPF

Kb (rat GnRH receptor; [1]) [nM] | GnRH functional (hGnRH receptor) | Structure (SMILES) | IC50 (Glucagon) [µM] | further results
– | – | CC(=O)N[C@H](Cc1ccc2ccccc2c1)C(=O)N[C@H](Cc1ccc(Cl)cc1)C(=O)N[C@H](Cc1cccnc1)C(=O)N[C@@H](CO)C(=O)N[C@@H](CCCCNC(=O)c1cccnc1)C(=O)N[C@H](CCCCNC(=O)c1cccnc1)C(=O)N[C@@H](CC(C)C)C(=O)N[C@@H](CCCCNC(C)C)C(=O)N1CCC[C@H]1C(=O)N[C@H](C)C(N)=O [Antide, reference compound] (Ac-[d2Nal][dPhe(4-Cl)][d3Pal]SK(Nicotinoyl)[dK](Nicotinoyl)L[Lys(iPr)]P[dA]-NH2) | – | stimulation of total [3H]inositol phosphates by compound alone (hGnRH receptor; compound alone, no GnRH): Neither compound alone stimulated an increase; inhibition of GnRH-stimulated total inositol phosphate accumulation (hGnRH receptor; half-maximal concentration of GnRH (1 nM)): able to inhibit the stimulation
– | – | Cc1cc2c(cc1Cc1ccc(C(=O)NC[C@H]3CC[C@H](CNC(=N)N)CC3)o1)C(C)(C)CCC2(C)C [Compound 10] | 6.6 | Kb (hGnRH receptor): 95 nM
– | – | Cc1cc2c(cc1Cc1ccc(C(=O)NCC3CCCC(CNc4nccc(NCC5CCCO5)n4)C3)o1)C(C)(C)CCC2(C)C (stereo not drawn) [Compound 11] | 3.2 | –
– | – | Cc1cc2c(cc1Cc1ccc(C(=O)NC[C@H]3CC[C@H](C(=O)O)CC3)o1)C(C)(C)CCC2(C)C [Compound 12] | 10 | Kb (hGnRH receptor): 170 nM
– | – | Cc1cnc(CNC(=O)c2ccc(Cc3cc4c(cc3C)C(C)(C)CCC4(C)C)o2)cn1 [Compound 13] | 7.9 | Kb (hGnRH receptor): 85 nM
– | Antag- onist | Cc1cc2c(cc1Cc1ccc(C(=O)NCc3nc4ccccc4[nH]3)o1)C(C)(C)CCC2(C)C [Compound 48] | 6.3 | –
8 | – | Cc1cc2c(cc1Cc1ccc(C(=O)NCc3cccc(CNc4nccc(NCC5CCCO5)n4)c3)o1)C(C)(C)CCC2(C)C (stereo not drawn) [Compound 70] | – | GnRH functional (rat) (rat GnRH receptor; [1]): Antag- onist (rat)
– | Antag- onist | Cc1cc2c(cc1Cc1ccc(C(=O)NCc3cccc(CNc4ccnc(NC[C@@H]5CCCO5)n4)c3)o1)C(C)(C)CCC2(C)C [Compound 136] | – | effect on GnRH dose-response curves, extracellular acidification rate (rat GnRH receptor; GGH3 cells, one experiment): rightward shift in the dose-response curves to GnRH without decreasing the maximum response to GnRH; Kb (rat GnRH receptor; rat, pH (microphysiometry)): 8 nM
9 | Antag- onist | COc1cc(OC)c(NC(=O)c2ccc(Cc3cc4c(cc3C)C(C)(C)CCC4(C)C)o2)c(OC)c1C#N [Compound 177] | – | –
11 | Antag- onist | COc1cc(OC)c(NC(=O)c2ccc(Cc3cc4c(cc3C)CCCC4(C)C)o2)c(OC)c1 [Compound 183] | – | –
0.9 | Antag- onist | COc1cc(OC)c(NC(=O)c2ccc(Cc3cc(C(C)(C)C)ccc3C)o2)c(OC)c1 [Compound 200] | – | –

Structure (SMILES) | Kb (rat GnRH receptor; [1]) [nM] | GnRH functional (hGnRH receptor) | IC50 (Glucagon) [µM] | further results
COc1cccc(OC)c1NC(=O)c1ccc(Cc2cc3c(cc2C)C(C)(C)CCC3(C)C)o1 [Compound 20] | 9 | – | 6.7 | Ki (Glucagon): 6.7 µM
COc1cc(OC)c(NC(=O)c2ccc(Cc3cc4c(cc3C)C(C)(C)CCC4(C)C)o2)c(OC)c1 [Compound 134] | – | Antag- onist | – | Kb (hGnRH receptor; human, PI (inositol phosphates)): 13 nM; Kb (rat GnRH receptor; rat, pH (microphysiometry)): 13 nM
COc1cc(OC)c(NC(=O)c2ccc(Cc3cc4c(cc3OC)C(C)(C)CCC4(C)C)o2)c(OC)c1 [Compound 169] | 17 | Antag- onist | – | –
